# Experimental data taken from publication PMC3849095, “Trans-chalcone and quercetin down-regulate fatty acid synthase gene expression and reduce ergosterol content in the human pathogenic dermatophyte Trichophyton rubrum” (BMC Complementary and Alternative Medicine, 2013).
# Where two headings read alike, the source gives them in different places.
# Biological target: T1, Fatty acid synthase (FAS) (Saccharomyces cerevisiae, UniProt P07149+P19097)
# T1 construct: gene FAS1; with FAS2 (alpha subunit of the yeast FAS complex)
# Experiment: FAS activity (absorbance at […] nm, malonyl CoA/acetyl CoA/NADPH) in ammonium sulfate-precipitated yeast protein extract
# Format: biochemical
# T1 sequence (P19097 whole entry): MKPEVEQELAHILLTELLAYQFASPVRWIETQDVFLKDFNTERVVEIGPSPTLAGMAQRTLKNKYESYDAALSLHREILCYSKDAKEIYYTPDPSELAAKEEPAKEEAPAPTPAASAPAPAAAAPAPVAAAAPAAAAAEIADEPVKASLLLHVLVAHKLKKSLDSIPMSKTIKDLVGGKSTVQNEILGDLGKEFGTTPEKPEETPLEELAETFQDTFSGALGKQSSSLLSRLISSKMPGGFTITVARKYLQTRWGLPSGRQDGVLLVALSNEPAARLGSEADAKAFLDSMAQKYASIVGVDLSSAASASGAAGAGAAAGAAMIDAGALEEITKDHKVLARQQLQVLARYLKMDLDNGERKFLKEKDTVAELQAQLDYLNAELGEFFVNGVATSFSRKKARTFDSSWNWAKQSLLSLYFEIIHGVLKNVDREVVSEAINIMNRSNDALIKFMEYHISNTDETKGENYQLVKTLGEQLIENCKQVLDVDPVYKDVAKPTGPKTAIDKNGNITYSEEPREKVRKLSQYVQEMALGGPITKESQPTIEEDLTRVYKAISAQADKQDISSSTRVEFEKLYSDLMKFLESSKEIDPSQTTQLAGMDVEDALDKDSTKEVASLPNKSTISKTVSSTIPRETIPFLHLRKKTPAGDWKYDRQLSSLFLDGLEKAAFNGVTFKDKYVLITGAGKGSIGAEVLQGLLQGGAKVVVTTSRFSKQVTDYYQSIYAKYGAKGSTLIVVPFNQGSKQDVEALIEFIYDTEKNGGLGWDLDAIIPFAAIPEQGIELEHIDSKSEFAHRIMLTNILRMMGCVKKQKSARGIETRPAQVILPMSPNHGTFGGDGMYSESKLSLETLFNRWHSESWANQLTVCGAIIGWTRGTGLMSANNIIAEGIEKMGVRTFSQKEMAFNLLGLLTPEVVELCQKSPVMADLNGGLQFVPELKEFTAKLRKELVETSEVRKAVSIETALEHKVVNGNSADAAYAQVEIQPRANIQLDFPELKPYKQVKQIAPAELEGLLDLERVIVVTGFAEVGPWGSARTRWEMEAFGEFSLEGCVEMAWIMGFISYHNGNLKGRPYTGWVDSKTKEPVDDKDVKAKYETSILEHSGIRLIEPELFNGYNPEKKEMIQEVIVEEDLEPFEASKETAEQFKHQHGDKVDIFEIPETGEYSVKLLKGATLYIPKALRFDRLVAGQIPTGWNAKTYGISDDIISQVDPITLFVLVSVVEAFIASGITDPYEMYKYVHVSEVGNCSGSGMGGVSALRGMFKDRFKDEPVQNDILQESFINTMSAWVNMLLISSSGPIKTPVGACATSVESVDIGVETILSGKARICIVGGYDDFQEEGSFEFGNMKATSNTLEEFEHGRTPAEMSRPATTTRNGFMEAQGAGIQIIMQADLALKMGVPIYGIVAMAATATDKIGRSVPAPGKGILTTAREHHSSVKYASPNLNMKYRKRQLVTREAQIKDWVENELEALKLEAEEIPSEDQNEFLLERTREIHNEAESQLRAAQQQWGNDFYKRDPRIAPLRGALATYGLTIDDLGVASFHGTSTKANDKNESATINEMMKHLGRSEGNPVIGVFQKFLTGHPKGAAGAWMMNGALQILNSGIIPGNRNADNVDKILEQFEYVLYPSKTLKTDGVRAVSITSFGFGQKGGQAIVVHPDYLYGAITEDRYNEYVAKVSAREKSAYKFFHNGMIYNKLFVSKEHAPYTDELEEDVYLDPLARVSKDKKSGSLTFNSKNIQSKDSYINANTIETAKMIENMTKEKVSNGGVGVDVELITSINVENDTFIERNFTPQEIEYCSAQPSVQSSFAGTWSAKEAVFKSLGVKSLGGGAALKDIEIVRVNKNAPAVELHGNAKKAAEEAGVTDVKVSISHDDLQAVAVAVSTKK
# T1 sequence (P07149 whole entry): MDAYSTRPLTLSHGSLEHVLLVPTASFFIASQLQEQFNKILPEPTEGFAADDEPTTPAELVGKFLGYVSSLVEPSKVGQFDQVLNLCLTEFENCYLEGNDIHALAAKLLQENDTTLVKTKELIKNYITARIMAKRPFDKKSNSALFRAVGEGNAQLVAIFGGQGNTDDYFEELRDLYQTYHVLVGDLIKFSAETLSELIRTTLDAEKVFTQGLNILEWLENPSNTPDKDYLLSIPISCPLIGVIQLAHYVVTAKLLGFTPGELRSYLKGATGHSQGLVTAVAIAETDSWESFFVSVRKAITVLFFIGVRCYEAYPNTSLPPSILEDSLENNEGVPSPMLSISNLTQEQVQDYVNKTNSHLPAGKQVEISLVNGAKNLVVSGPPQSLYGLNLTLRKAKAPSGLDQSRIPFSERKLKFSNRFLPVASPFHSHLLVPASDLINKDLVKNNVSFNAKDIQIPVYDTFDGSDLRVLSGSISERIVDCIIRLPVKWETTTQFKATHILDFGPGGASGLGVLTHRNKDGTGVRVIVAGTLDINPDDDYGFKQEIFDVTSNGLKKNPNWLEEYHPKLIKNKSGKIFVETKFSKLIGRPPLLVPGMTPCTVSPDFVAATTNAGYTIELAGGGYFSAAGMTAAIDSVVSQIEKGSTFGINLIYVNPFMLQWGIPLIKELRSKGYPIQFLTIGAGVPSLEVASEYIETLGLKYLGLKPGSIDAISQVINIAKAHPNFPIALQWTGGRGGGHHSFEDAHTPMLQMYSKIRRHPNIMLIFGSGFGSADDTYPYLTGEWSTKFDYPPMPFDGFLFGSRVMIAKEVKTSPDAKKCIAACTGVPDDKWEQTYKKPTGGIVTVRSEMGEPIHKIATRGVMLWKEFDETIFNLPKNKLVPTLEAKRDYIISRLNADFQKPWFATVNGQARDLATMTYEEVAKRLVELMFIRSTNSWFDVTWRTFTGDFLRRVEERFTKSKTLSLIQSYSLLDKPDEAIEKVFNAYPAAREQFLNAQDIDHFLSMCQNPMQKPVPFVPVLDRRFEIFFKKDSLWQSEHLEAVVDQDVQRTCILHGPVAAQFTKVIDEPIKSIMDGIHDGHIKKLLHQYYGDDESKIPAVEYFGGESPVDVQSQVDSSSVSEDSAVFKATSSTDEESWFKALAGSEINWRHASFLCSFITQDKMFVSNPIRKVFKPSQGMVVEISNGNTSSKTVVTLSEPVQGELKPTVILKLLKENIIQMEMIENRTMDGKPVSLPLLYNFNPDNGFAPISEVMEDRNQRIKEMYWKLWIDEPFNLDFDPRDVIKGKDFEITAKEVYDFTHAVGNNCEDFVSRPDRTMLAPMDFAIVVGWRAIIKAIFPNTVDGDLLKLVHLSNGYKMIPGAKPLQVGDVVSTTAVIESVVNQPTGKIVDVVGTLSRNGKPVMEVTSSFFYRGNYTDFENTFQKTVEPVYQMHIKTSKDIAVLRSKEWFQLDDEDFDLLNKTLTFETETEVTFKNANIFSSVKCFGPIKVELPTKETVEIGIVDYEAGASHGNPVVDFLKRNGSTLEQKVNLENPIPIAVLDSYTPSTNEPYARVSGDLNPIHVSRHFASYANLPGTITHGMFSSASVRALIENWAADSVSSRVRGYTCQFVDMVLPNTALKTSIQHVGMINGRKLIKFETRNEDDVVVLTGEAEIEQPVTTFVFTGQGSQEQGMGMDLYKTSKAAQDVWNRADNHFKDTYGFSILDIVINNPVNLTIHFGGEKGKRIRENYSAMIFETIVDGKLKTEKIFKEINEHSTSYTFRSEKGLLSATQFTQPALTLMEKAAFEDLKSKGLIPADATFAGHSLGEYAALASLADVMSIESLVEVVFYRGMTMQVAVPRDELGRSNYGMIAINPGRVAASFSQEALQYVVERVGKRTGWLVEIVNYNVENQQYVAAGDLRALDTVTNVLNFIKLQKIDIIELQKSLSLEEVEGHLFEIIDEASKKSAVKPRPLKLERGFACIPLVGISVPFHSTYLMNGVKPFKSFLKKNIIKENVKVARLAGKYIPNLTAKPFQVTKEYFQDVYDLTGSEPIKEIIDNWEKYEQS
Structure (SMILES),IC50 (read-out: IC50 (converted)),IC50 (read-out: IC50 (μg/mL) (converted))
"O=C(/C=C/c1ccccc1)c1ccccc1 [T-CHL, Trans-chalcone]",328 µM,–
"O=c1c(O)c(-c2ccc(O)c(O)c2)oc2cc(O)cc(O)c12 [QCT, Quercetin]",–,56.6 µM
